The nature of data set [1]: plasma concentrations of unchanged terfenadine and acid metabolite formation in subjects. In kind it is in vivo.
The conditions of data set [2]: to two primary metabolites; cited from earlier work.
The target of data set [3] is histamine H1-receptor (Homo sapiens, UniProt P35367). As to conditions: primary metabolites of terfenadine; cited from earlier work.
The subject of data set [4] is patients with impaired hepatic function. As to conditions: recommended dose of terfenadine, or antihistaminic amount of acid metabolite.
Where [5] appears, read: cases of hepatic impairment, preliminary information.

Sequence of histamine H1-receptor (P35367 whole entry, species assumed): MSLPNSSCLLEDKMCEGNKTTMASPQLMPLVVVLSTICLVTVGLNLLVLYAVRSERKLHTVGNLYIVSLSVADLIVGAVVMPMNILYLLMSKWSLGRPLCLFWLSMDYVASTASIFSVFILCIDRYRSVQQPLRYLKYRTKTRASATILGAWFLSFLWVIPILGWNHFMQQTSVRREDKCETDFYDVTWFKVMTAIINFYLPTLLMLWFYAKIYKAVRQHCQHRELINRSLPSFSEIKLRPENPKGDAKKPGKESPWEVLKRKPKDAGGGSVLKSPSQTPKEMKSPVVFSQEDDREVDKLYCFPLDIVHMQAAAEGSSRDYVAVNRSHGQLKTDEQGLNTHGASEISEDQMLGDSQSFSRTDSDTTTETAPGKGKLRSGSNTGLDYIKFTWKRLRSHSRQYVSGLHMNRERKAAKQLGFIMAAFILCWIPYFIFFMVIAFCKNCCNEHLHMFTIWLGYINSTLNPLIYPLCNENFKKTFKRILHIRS

With `CC(C)(C)c1ccc(C(O)CCCN2CCC(C(O)(c3ccccc3)c3ccccc3)CC2)cc1` (stereo not drawn) [Terfenadine, α-[4-(1,1-dimethylethyl)phenyl]-4-(hydroxydiphenylmethyl)-1-piperidinebutanol], in data set [1] (setting [5]), the “rate of acid metabolite formation” value was “decreased” and the “unchanged terfenadine plasma concentrations” value is “significant concentrations of unchanged terfenadine can be detected”. The “unchanged terfenadine plasma concentrations” value in data set [1] (subjects with normal hepatic function) is “have not been detected”. For the same molecule, in data set [2], the first pass metabolism is listed as 99%.

`OC(c1ccccc1)(c1ccccc1)C1CCNCC1` [dealkylated metabolite]: the “activity of metabolite (antihistaminic)” value in data set [3] is “inactive”.

`CC(C)(C(=O)O)c1ccc(C(O)CCCN2CCC(C(O)(c3ccccc3)c3ccccc3)CC2)cc1` (stereo not drawn) [terfenadine acid metabolite, 4-[l-hydroxy-4-[4-(hydroxydiphenylmethyl)-1-piperidinyl]butyl]-α,α-dimethyl-benzeneacetic acid]: the “cardiac events of QT prolongation and/or ventricular tachycardia” value in data set [4] is listed as “will not experience cardiac events of QT prolongation and/or ventricular tachycardia”.

The values are drawn from patent US6399632B1, “Method of providing an antihistaminic effect in a hepatically impaired patient” (Merrell Pharmaceuticals Inc., priority 1992, dated 2002).
